Patent US7030251B2, “Modifications of the trometamol salt of R-thioctic acid as well as a process for their production” (Viatris GmbH & Co KG, priority 2001, dated 2006)
Counter-ions that a name gives are not always drawn.

Assay: Angle of repose α as a measure of flowability and pourability
Format: physicochemical
Settings: determined according to R. Voigt, Lehrbuch der pharmazeutischen Technologie, 3rd Edition 1979, p. 165
Source text: The angle of repose α of the modifications as a measure of the flowability and pourability is likewise different: [table]

For `O=C(O)CCCC[C@@H]1CCSS1` [Modification B, trometamol salt of R-thioctic acid], the “Angle of Repose α” value was 32°.

With `O=C(O)CCCC[C@@H]1CCSS1` [Modification mixture A/B = 1:1, trometamol salt of R-thioctic acid] the “Angle of Repose α” value was 34°.

For `O=C(O)CCCC[C@@H]1CCSS1` [Modification A, trometamol salt of R-thioctic acid], the “Angle of Repose α” value was 46°.
